Laboratory results published in patent US6143492A, “Optical molecular sensors for cytochrome P450 activity” (Aurora Biosciences Corporation, priority 1999, dated 2000).
Where “and” joins values, the source holds several entries; their conditions need not be identical. Equal values may be shown once.

Columns and labels:
CYP 2C19 = CYP 2C19 (Homo sapiens, UniProt P33261); experiment: Kinetics of fluorogenic substrates with CYP 2C19; format: biochemical; conditions: for v (1.25 uM), turnover rate at 1.25 μM: CYP 2C19, substrate 1.25 uM; for v (10 uM), turnover rate at 10 μM: CYP 2C19, substrate 10 uM
Sequence of CYP 2C19 (P33261 whole entry): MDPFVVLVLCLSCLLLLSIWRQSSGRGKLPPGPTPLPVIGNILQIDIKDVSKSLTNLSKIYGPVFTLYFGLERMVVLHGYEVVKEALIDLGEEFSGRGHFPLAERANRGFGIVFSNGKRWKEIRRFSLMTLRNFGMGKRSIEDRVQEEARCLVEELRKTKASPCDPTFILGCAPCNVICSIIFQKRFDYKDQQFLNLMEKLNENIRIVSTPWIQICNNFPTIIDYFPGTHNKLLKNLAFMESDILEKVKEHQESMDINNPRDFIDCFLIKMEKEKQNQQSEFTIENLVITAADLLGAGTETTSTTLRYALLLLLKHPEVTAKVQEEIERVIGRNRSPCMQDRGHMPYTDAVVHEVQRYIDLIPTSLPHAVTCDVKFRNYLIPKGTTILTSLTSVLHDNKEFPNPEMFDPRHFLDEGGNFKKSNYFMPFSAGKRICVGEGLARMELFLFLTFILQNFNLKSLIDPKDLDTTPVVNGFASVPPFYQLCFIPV

CYP 2C9 = CYP 2C9 (Homo sapiens, UniProt P11712); experiment: Kinetics of fluorogenic substrates with CYP 2C9; format: biochemical; conditions: for v (1.25 uM), turnover rate at 1.25 μM: CYP 2C9, substrate 1.25 uM; for v (10 uM), turnover rate at 10 μM: CYP 2C9, substrate 10 uM; for conversion to the same fluorescent product vs the most closely structurally-related substrate / kcat / type of kinetics / kcat/Km: CYP 2C9
Sequence of CYP 2C9 (P11712 whole entry): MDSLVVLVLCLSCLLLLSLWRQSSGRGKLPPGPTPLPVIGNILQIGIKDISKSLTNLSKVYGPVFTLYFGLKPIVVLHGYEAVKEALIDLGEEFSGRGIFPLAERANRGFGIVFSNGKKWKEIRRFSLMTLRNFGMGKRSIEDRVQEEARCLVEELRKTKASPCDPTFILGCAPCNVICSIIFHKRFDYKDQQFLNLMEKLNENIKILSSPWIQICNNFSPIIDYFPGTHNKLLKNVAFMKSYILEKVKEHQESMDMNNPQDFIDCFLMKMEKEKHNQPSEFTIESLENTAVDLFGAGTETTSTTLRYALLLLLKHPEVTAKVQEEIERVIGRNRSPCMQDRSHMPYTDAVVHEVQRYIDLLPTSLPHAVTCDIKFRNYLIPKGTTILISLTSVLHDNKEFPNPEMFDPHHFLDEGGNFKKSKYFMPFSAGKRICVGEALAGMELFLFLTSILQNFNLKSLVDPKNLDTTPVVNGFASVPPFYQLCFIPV

CYP 2B6 = target: T1, CYP 2B6 (Homo sapiens, UniProt P20813); conditions: for Km: cyp 2b6
T1 sequence (P20813 1-491): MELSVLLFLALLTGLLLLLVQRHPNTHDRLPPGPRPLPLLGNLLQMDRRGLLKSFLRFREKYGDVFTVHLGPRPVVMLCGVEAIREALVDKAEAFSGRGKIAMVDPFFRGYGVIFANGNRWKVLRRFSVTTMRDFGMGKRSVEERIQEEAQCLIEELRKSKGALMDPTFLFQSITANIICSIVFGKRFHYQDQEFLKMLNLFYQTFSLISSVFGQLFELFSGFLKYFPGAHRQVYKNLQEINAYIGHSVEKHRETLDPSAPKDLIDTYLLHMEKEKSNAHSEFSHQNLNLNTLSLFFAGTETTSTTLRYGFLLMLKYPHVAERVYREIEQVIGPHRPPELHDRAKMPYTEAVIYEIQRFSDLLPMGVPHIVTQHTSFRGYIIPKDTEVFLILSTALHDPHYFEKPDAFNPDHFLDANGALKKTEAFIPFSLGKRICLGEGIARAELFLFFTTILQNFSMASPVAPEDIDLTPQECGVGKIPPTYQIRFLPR

CYP 3A4 = target: T2, CYP 3A4 (Homo sapiens, UniProt P08684); experiment: Kinetics of fluorogenic substrates with CYP 3A4; format: biochemical; conditions: for conversion to the same fluorescent product vs the most closely structurally-related substrate / type of kinetics / kcat / kcat/Km: CYP 3A4; for v (1.25 uM), turnover rate at 1.25 μM: CYP 3A4, substrate 1.25 uM; for v (10 uM), turnover rate at 10 μM: CYP 3A4, substrate 10 uM
T2 construct: NADPH regenerating system
T2 sequence (P08684 whole entry): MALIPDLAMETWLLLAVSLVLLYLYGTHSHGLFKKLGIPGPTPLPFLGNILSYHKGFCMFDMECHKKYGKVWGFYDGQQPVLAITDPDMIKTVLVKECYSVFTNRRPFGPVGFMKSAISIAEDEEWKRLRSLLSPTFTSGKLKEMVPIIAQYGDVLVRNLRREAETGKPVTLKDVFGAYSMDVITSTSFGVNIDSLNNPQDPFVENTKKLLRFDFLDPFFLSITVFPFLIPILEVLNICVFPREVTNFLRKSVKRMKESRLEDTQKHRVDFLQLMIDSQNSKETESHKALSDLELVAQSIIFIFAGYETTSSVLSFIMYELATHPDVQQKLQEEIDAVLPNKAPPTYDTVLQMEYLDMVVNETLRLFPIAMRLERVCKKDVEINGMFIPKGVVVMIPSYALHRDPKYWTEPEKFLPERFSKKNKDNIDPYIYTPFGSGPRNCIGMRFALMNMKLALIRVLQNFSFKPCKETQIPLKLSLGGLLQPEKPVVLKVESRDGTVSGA
Excerpt: Whichever of the four abstractable hydrogen atoms (designated H^1 and H^2 in this representation of BOMR) is removed in the initial reaction step, with reference to Reaction Scheme 1 of FIG. 1, the hydroxylation product will spontaneously decompose to the free resorufin dye. In addition, the benzyloxy group, attached to the carbon carrying the two hydrogens designated H^2, contributes an inductive electronic effect on that carbon, which can stabilize the radical formed during abstraction of one of the H^2 hydrogens by a cytochrome P450.
Optimization of assay conditions was, and is preferably, accomplished through statistically validated Design of Experiments methodologies, using the commercial software package "Design-Expert®" produced by Stat-Ease® Inc. The data shown in FIGS. 4 and 5 were obtained with initial optimization.
For further understanding these terms in the context of this invention, attention is directed to FIG. 4 and the analysis of FIG. 4.

CYP 2D6 = CYP 2D6 (Homo sapiens, UniProt P10635); experiment: Kinetics of fluorogenic substrates with CYP 2D6; format: biochemical; conditions: for kcat / kcat/Km / type of kinetics: CYP 2D6; for v (1.25 uM), turnover rate at 1.25 μM: CYP 2D6, substrate 1.25 uM; for v (10 uM), turnover rate at 10 μM: CYP 2D6, substrate 10 uM; for conversion to the same fluorescent product vs the most closely structurally-related substrate: CYP 3A4 and CYP 2D6, Table 8
Sequence of CYP 2D6 (P10635 whole entry): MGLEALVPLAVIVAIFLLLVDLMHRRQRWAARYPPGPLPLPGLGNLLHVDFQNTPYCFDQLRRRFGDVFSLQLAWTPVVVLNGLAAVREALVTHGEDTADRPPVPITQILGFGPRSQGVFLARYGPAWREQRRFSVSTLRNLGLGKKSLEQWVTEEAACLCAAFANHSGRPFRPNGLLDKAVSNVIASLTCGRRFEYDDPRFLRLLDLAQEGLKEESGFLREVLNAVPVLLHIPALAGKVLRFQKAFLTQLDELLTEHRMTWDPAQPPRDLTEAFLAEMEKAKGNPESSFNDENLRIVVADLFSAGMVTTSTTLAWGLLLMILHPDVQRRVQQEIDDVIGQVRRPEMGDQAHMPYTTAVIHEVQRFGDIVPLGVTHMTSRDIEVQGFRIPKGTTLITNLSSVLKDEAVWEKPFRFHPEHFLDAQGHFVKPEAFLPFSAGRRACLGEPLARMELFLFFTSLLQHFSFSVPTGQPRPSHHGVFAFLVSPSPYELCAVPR

[1] = in parentheses: from Michaelis-Menten fit (sigmoidal kinetics)

SMILES | kcat (CYP 2C19; CYP 2C19) [s⁻¹] | kcat/Km (CYP 2C19; CYP 2C19) [M⁻¹ s⁻¹] | type of kinetics (CYP 2C19; CYP 2C19) | v (1.25 uM), turnover rate at 1.25 μM (CYP 2C19) [min⁻¹] | v (10 uM), turnover rate at 10 μM (CYP 2C19) [min⁻¹] | v (1.25 uM), turnover rate at 1.25 μM (CYP 2C9) [min⁻¹] | v (10 uM), turnover rate at 10 μM (CYP 2C9) | kcat (CYP 2B6) [s⁻¹] | kcat/Km (CYP 2B6) [M⁻¹ s⁻¹] | type of kinetics (CYP 2B6) | v (1.25 uM), turnover rate at 1.25 μM (CYP 2B6) [min⁻¹] | v (10 uM), turnover rate at 10 μM (CYP 2B6) [min⁻¹] | v (1.25 uM), turnover rate at 1.25 μM (CYP 3A4) | v (10 uM), turnover rate at 10 μM (CYP 3A4) | kcat (CYP 2C9) | type of kinetics (CYP 2C9) | kcat (CYP 2D6) [s⁻¹] | kcat/Km (CYP 2D6) [M⁻¹ s⁻¹] | v (1.25 uM), turnover rate at 1.25 μM (CYP 2D6) | v (10 uM), turnover rate at 10 μM (CYP 2D6) | also measured
N#Cc1cc2ccc(OCc3ccccc3)cc2oc1=O [BCC, 7-Benzyloxy-3-cyanocoumarin, reference compound] | 0.0017 | 234 | Michaelis- | 0.02 | 0.06 | 0.00 | 0.00 min⁻¹ | 0.0017 | 1064 | Michaelis- | 0.04 | 0.07 | – | – | – | – | – | – | – | – | –
N#Cc1cc2ccc(OCOCc3ccccc3)cc2oc1=O [BOMCC, 7-Benzyloxymethyloxy-3-cyanocoumarin] | 0.0317 | 2262 | Michaelis- | 0.16 | 0.68 | 0.04 | 0.42 min⁻¹ | 1.1 | 21154 | Michaelis- | 0.38 | 3.05 | 0.12 min⁻¹ | 0.98 min⁻¹ | 0.035 s⁻¹ | Michaelis- | – | – | – | – | conversion to the same fluorescent product vs the most closely structurally-related substrate (CYP 3A4): more efficient conversion; type of kinetics (CYP 3A4): sigmoidal; kcat (CYP 3A4; [1]): 0.167 s⁻¹; kcat/Km (CYP 3A4; [1]): 1873 M⁻¹ s⁻¹; conversion to the same fluorescent product vs the most closely structurally-related substrate (CYP 2C19; CYP 2C19): more efficient conversion; conversion to the same fluorescent product vs the most closely structurally-related substrate (CYP 2C9): more efficient conversion; conversion to the same fluorescent product vs the most closely structurally-related substrate (CYP 2B6): more efficient conversion
O=c1ccc2nc3ccc(OCOCc4ccccc4)cc3oc-2c1 [BOMR, Benzyloxymethylresorufin] | – | – | – | – | – | – | – | 0.013 | 18265 | Michaelis- | 0.28 | 0.71 | 0.55 min⁻¹ | 0.88 min⁻¹ | – | – | – | – | – | – | conversion to the same fluorescent product vs the most closely structurally-related substrate (CYP 3A4): more efficient conversion; kcat (CYP 3A4): 0.0183 s⁻¹; kcat/Km (CYP 3A4): 13095 M⁻¹ s⁻¹; type of kinetics (CYP 3A4): Michaelis-; turnover rate (kcat) (CYP 3A4; CYP 3A4, FIG. 4 data): 0.5 s⁻¹; CYP 3A4 turnover rate of BOMR relative to BR (CYP 3A4; FIG. 4 data): approximately five times greater; enzymatic efficiency (kcat /Km) of CYP 3A4 towards BOMR relative to BR (CYP 3A4; FIG. 4 data): 14 times; conversion to the same fluorescent product vs the most closely structurally-related substrate (CYP 2B6): more efficient conversion
CC(C)Oc1ccc2cc(C#N)c(=O)oc2c1 [IPCC] | 0.0325 | 568 | – | 0.027 | 0.232 | – | – | – | – | – | – | – | – | – | – | – | 0.0017 | 93 | 0.0076 min⁻¹ | 0.0378 min⁻¹ | –
COc1ccc2c(C(F)(F)F)cc(=O)oc2c1 [MFC, 7-Methoxy-4-trifluoromethylcoumarin, reference compound] | – | – | – | – | – | 0.01 | 0.03 min⁻¹ | 0.0483 | 34524 | Michaelis- | 1.63 | 2.53 | – | – | 0.0067 s⁻¹ | Michaelis- | 0.005 | – | 0.03 min⁻¹ | 0.10 min⁻¹ | type of kinetics (CYP 2D6): Michaelis-; Km (CYP 2B6): 1.4 µM
COc1ccc(COc2ccc3c(C(F)(F)F)cc(=O)oc3c2)cc1 [MOBFC] | – | – | – | – | – | 0.02 | 0.188 min⁻¹ and 0.19 min⁻¹ | – | – | – | – | – | 0.0214 min⁻¹ and 0.02 min⁻¹ | 0.3453 min⁻¹ and 0.35 min⁻¹ | 0.00483 s⁻¹ and 0.005 s⁻¹ | Michaelis- | 0.01 | 2067 | 0.09 min⁻¹ | 0.49 min⁻¹ | kcat (CYP 3A4): 0.012 s⁻¹; kcat/Km (CYP 3A4): 897 M⁻¹ s⁻¹; type of kinetics (CYP 3A4): Michaelis-; conversion to the same fluorescent product vs the most closely structurally-related substrate (CYP 2C9): more efficient conversion; kcat/Km (CYP 2C9): 628 M⁻¹ s⁻¹; type of kinetics (CYP 2D6): Michaelis-; conversion to the same fluorescent product vs the most closely structurally-related substrate (CYP 2D6): more efficient conversion
COc1ccc(COc2ccc3nc4ccc(=O)cc-4oc3c2)cc1 [MOBR, Paramethoxybenzylresorufin] | – | – | not MMK | 1.26 | 0.69 | 0.02 | 0.02 min⁻¹ | 0.0067 | 58333 | Michaelis- | 0.08 | 0.10 | – | – | 0 s⁻¹ | Michaelis- | – | 263 | 0.0185 min⁻¹ and 0.02 min⁻¹ | 0.0409 min⁻¹ and 0.04 min⁻¹ | conversion to the same fluorescent product vs the most closely structurally-related substrate (CYP 2C9): more efficient conversion; kcat/Km (CYP 2C9): 952 M⁻¹ s⁻¹; type of kinetics (CYP 2D6): Michaelis-; conversion to the same fluorescent product vs the most closely structurally-related substrate (CYP 2D6): more efficient conversion; Km (CYP 2B6): 0.1 µM
COCOc1ccc2nc3ccc(=O)cc-3oc2c1 [MOMR] | – | – | – | 0.06 | 0.062 | – | – | – | – | – | – | – | 0.0083 min⁻¹ | 0.0338 min⁻¹ | – | – | 0.00567 | 708 | 0.03396 min⁻¹ | 0.2146 min⁻¹ | kcat (CYP 3A4): 0.001 s⁻¹; kcat/Km (CYP 3A4): 167 M⁻¹ s⁻¹
